Data from ChEMBL document CHEMBL1201862, “PubChem BioAssay data set” (2004).
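Assay format: 96-well plates, 48-hour exposure. GI50 marks 50% less growth.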 Activity calls are given as the source filed them. No stated cut-off is given here; in the data, active = GI50 up to about 1.1 µM and inactive = higher.

Experiments:
Assay in all cases: DTP human tumour cell line panel, 48 h
786-0 = system: 786-0
A498 = system: A498
HCC 2998 = system: HCC 2998
HCT-116 = system: HCT-116
HL-60 = system: HL-60
LOX IMVI = system: LOX IMVI
M14 = system: M14
NCI-H226 = system: NCI-H226
NCI-H23 = system: NCI-H23
OVCAR-8 = system: OVCAR-8
RXF 393 = system: RXF 393
SF-268 = system: SF-268
SK-MEL-2 = system: SK-MEL-2
SNB-75 = system: SNB-75
UACC-257 = system: UACC-257
UO-31 = system: UO-31
HT-29 = system: HT-29
MDA-MB-231 = system: MDA-MB-231
T47D = system: T47D

Measured: GI50

Cc1ccc(NC(=O)CC2Sc3ccccc3NC2=O)c(C)c1 (stereo not drawn)
inactive: 786-0 13.7 µM | A498 14 µM | HCC 2998 11 µM | HCT-116 10.3 µM | HL-60 2.73 µM | LOX IMVI 19.6 µM | M14 12.4 µM | NCI-H226 14.8 µM | NCI-H23 16.2 µM | OVCAR-8 18.5 µM | RXF 393 14 µM | SF-268 21.4 µM | SK-MEL-2 4.56 µM | SNB-75 4.52 µM | UACC-257 2.59 µM | UO-31 13 µM

CC1(C)CCOC(=O)C(Cl)CC1Cl (stereo not drawn)
inactive: 786-0 > 100 µM | A498 > 100 µM | HCC 2998 > 100 µM | HCT-116 > 100 µM | HT-29 > 100 µM | LOX IMVI > 100 µM | M14 > 100 µM | MDA-MB-231 > 100 µM | NCI-H226 > 100 µM | NCI-H23 > 100 µM | OVCAR-8 > 100 µM | RXF 393 > 100 µM | SF-268 > 100 µM | SK-MEL-2 > 100 µM | T47D > 100 µM | UACC-257 > 100 µM

NC(CCSCC(F)F)C(=O)O (stereo not drawn)
inactive: 786-0 > 100 µM | A498 > 100 µM | HCC 2998 > 100 µM | HCT-116 > 100 µM | HL-60 > 100 µM | HT-29 > 100 µM | LOX IMVI > 100 µM | M14 > 100 µM | NCI-H226 > 100 µM | NCI-H23 > 100 µM | OVCAR-8 > 100 µM | RXF 393 > 100 µM | SF-268 > 100 µM | SNB-75 > 100 µM | UACC-257 > 100 µM | UO-31 > 100 µM

COc1ccc(O)c2c(=O)ccccc12
inactive: 786-0 > 100 µM | A498 > 100 µM | HCC 2998 > 100 µM | HCT-116 > 100 µM | HL-60 > 100 µM | HT-29 > 100 µM | LOX IMVI > 100 µM | M14 > 100 µM | NCI-H226 46.2 µM | NCI-H23 > 100 µM | OVCAR-8 > 100 µM | RXF 393 4.79 µM | SF-268 > 100 µM | SK-MEL-2 > 100 µM | SNB-75 > 100 µM | UACC-257 > 100 µM | UO-31 78.2 µM

COC(=O)C1(O)c2ccccc2N=C2C1CCN2C (stereo not drawn)
inactive: 786-0 > 100 µM | A498 > 100 µM | HCC 2998 > 100 µM | HCT-116 > 100 µM | HL-60 > 100 µM | HT-29 > 100 µM | LOX IMVI > 100 µM | M14 > 100 µM | NCI-H23 > 100 µM | OVCAR-8 > 100 µM | RXF 393 > 100 µM | SF-268 > 100 µM | SK-MEL-2 > 100 µM | SNB-75 26.8 µM | UACC-257 > 100 µM | UO-31 > 100 µM

O=C1C2Nc3ccccc3SC2C(=O)N1c1ccc(Br)cc1 (stereo not drawn)
inactive: 786-0 18.9 µM | A498 26 µM | HCC 2998 45.8 µM | HL-60 > 10 µM | HT-29 36.1 µM | LOX IMVI 27.9 µM | M14 33.5 µM | NCI-H226 7.24 µM | NCI-H23 36.5 µM | OVCAR-8 37.4 µM | RXF 393 18.2 µM | SF-268 73.1 µM | SK-MEL-2 17.7 µM | SNB-75 24.5 µM | UACC-257 26.5 µM | UO-31 18.4 µM

COc1cc(/C=C\c2ccncc2)cc(OC)c1OC
inactive: 786-0 > 100 µM | A498 > 100 µM | HCT-116 99.1 µM | HL-60 24.1 µM | HT-29 40.6 µM | LOX IMVI 44.2 µM | M14 42.9 µM | NCI-H226 > 100 µM | OVCAR-8 > 100 µM | RXF 393 > 100 µM | SF-268 > 100 µM | SNB-75 37.8 µM | UACC-257 > 100 µM | UO-31 72.3 µM

CC(=O)Nc1ccc(C(=O)NN2C(=O)CSC2c2ccc([N+](=O)[O-])cc2)cc1 (stereo not drawn)
inactive: 786-0 > 100 µM | A498 > 100 µM | HCC 2998 > 100 µM | HCT-116 > 100 µM | HT-29 > 100 µM | M14 > 100 µM | MDA-MB-231 75.9 µM | NCI-H226 > 100 µM | NCI-H23 > 100 µM | OVCAR-8 > 100 µM | RXF 393 > 100 µM | SF-268 79.8 µM | SK-MEL-2 > 100 µM | SNB-75 > 100 µM | T47D > 100 µM | UACC-257 > 100 µM | UO-31 > 100 µM

CCN(CC)CC(C(=O)Nc1c(C)cccc1C)/C(C)=N\NC(=S)NN (stereo not drawn)
inactive: 786-0 > 100 µM | A498 > 100 µM | HCC 2998 > 100 µM | HCT-116 > 100 µM | HL-60 > 100 µM | HT-29 > 100 µM | LOX IMVI > 100 µM | M14 > 100 µM | NCI-H226 > 100 µM | NCI-H23 > 100 µM | OVCAR-8 > 100 µM | RXF 393 > 100 µM | SF-268 > 100 µM | SK-MEL-2 > 100 µM | SNB-75 > 100 µM | UACC-257 > 100 µM | UO-31 > 100 µM

CCOC(=O)NC(=O)c1cn(C2CCCCC2)c(=O)[nH]c1=O
inactive: 786-0 24.7 µM | A498 85.3 µM | HCC 2998 53.6 µM | HCT-116 5.11 µM | HL-60 7.53 µM | HT-29 6.67 µM | LOX IMVI 9.75 µM | M14 55.1 µM | NCI-H226 > 100 µM | NCI-H23 > 100 µM | OVCAR-8 > 100 µM | SF-268 > 100 µM | SK-MEL-2 > 100 µM | UACC-257 > 100 µM | UO-31 56 µM

CC(C)(C)C(=O)C(c1ccc(-c2cscn2)cc1)c1ccc(-c2cscn2)cc1
inactive: 786-0 21.5 µM | A498 21.9 µM | HCC 2998 > 100 µM | HCT-116 44 µM | HL-60 > 100 µM | HT-29 72.3 µM | LOX IMVI > 69.2 µM | M14 97.5 µM | NCI-H226 > 49.7 µM | NCI-H23 30.5 µM | OVCAR-8 16.7 µM | RXF 393 18.8 µM | SF-268 25.5 µM | SK-MEL-2 21.4 µM | SNB-75 6.25 µM | UACC-257 76 µM | UO-31 44.4 µM

COc1cc2c[n+]3ccc4cc(OC)c(OC)cc4c3cc2cc1O
inactive: 786-0 > 100 µM | A498 > 100 µM | HCC 2998 > 100 µM | HCT-116 > 100 µM | HL-60 > 100 µM | HT-29 > 100 µM | LOX IMVI > 100 µM | M14 > 100 µM | NCI-H23 > 100 µM | OVCAR-8 > 100 µM | RXF 393 > 100 µM | SF-268 > 100 µM | SK-MEL-2 > 100 µM | SNB-75 > 100 µM | UACC-257 > 100 µM | UO-31 > 100 µM

CCOC(=O)NC(=O)c1cn(CCCOC(=O)NCCCCCCNC(=O)OCCCn2c(=O)c(C(=O)NC(=O)OCC)cn(C)c2=O)c(=O)n(C)c1=O
inactive: 786-0 > 100 µM | A498 > 100 µM | HCC 2998 > 100 µM | HCT-116 > 100 µM | HL-60 > 100 µM | HT-29 > 100 µM | LOX IMVI > 100 µM | M14 > 100 µM | NCI-H226 > 100 µM | NCI-H23 > 100 µM | OVCAR-8 > 100 µM | RXF 393 24.8 µM | SF-268 > 100 µM | SK-MEL-2 > 100 µM | SNB-75 22.2 µM | UACC-257 > 100 µM | UO-31 > 100 µM

CCOC(=O)C(=O)Nc1nc2ccc(OC)cc2s1
inactive: 786-0 > 100 µM | A498 > 100 µM | HCC 2998 > 100 µM | HL-60 > 100 µM | HT-29 > 100 µM | LOX IMVI > 100 µM | M14 > 100 µM | NCI-H226 > 100 µM | NCI-H23 > 100 µM | OVCAR-8 > 100 µM | SF-268 > 100 µM | SK-MEL-2 > 100 µM | SNB-75 > 100 µM | UACC-257 > 100 µM | UO-31 > 100 µM

c1c[nH]c(Cc2nc(Cc3c[nH]cn3)c[nH]2)n1
inactive: 786-0 11.7 µM | A498 9.79 µM | HCC 2998 2.74 µM | HCT-116 29.5 µM | HL-60 3.66 µM | HT-29 4.12 µM | LOX IMVI 16.5 µM | M14 10.5 µM | NCI-H226 11.2 µM | NCI-H23 34.8 µM | OVCAR-8 33.5 µM | SF-268 4.65 µM | SK-MEL-2 13.7 µM | SNB-75 35.6 µM

Nc1ncnc2c1ncn2C1(CO)OC(CO)C(O)C1O (stereo not drawn)
inactive: 786-0 > 100 µM | A498 > 100 µM | HCC 2998 > 100 µM | HCT-116 > 100 µM | HL-60 > 100 µM | HT-29 > 100 µM | LOX IMVI > 100 µM | M14 > 100 µM | NCI-H226 > 100 µM | NCI-H23 > 100 µM | RXF 393 > 100 µM | SF-268 > 100 µM | SK-MEL-2 > 100 µM | SNB-75 > 100 µM | UACC-257 > 100 µM

Clc1cc2nc[nH]c2cc1Cl
inactive: 786-0 > 100 µM | A498 15.7 µM | HCC 2998 > 100 µM | HL-60 > 100 µM | HT-29 > 100 µM | LOX IMVI > 100 µM | M14 > 100 µM | NCI-H226 36.7 µM | NCI-H23 > 100 µM | OVCAR-8 > 100 µM | SF-268 > 100 µM | SK-MEL-2 > 100 µM | SNB-75 18.3 µM | UO-31 48.2 µM
